Reference: PubChem BioAssay AID493211 (Johns Hopkins Ion Channel Center, 2011)
Active and inactive are the calls of the source.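 The calls were made as follows: active = switches on the TRPC4 calcium channel at some tested dose and gives a concentration response curve; inactive = the rest.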

Biological target: TRPC4 (mouse), transient receptor potential cation channel C4
Assay: agonist potency at mouse TRPC4 – cell-based, HEK293 TRPC4/mu-opioid, Fluo-4 calcium flux, dose response (AID 493211)
Settings: HEK293 TRPC4/mu-opioid cells, Fluo-4 calcium fluorescence ratio; for fluorescence ratio, percent of baseline (100 = none): at 20 µM (top of the series)

| Structure (SMILES) | fluorescence ratio, percent of baseline (100 = none) | EC50 [nM] |
| --- | --- | --- |
| C[C@H]1CCCN1c1ccc([N+](=O)[O-])c2cccnc12 | inactive | – |
| O=[N+]([O-])c1ccc(N2CCN(c3ccncc3)CC2)c2ncccc12 | inactive | – |
| O=[N+]([O-])c1ccc(N2CCN(c3ncccn3)CC2)c2ncccc12 | inactive | – |
| COc1ccc(N2CCN(c3ccc([N+](=O)[O-])c4cccnc34)CC2)cc1 | inactive | – |
| COc1ccccc1N1CCN(c2ccc([N+](=O)[O-])c3cccnc23)CC1 | inactive | – |
| CCN(CC)c1ccc([N+](=O)[O-])c2cccnc12 | inactive | – |
| CC(C)(C)OC(=O)N1CCN(c2ccc([N+](=O)[O-])c3cccnc23)CC1 | inactive | – |
| O=[N+]([O-])c1ccc(N2CCOc3ccccc32)c2ncccc12 | inactive | – |
| O=[N+]([O-])c1ccc(N2CCC3(CCc4ccccc43)CC2)c2ncccc12 | inactive | – |
| C[C@@H]1CN(c2ccc([N+](=O)[O-])c3cccnc23)[C@@H](C)CN1 | inactive | – |
| O=[N+]([O-])c1ccc(N2CCC3(C=Cc4ccccc43)CC2)c2ncccc12 | inactive | – |
| CN1CCN(c2ccc([N+](=O)[O-])c3cccnc23)CC1 | – | 9.12 |
| CC1CC(C)CN(c2ccc([N+](=O)[O-])c3cccnc23)C1 (stereo not drawn) | inactive | – |
| O=[N+]([O-])c1ccc(N2CCC2)c2ncccc12 | inactive | – |
| O=C1CC(Nc2ccc([N+](=O)[O-])c3cccnc23)CN1 (stereo not drawn) | inactive | – |
| N#Cc1ccccc1C1CCN(c2ccc([N+](=O)[O-])c3cccnc23)CC1 | inactive | – |
| O=[N+]([O-])c1ccc(N2CCN(c3ccccn3)CC2)c2ncccc12 | inactive | – |
| CCOC(=O)NC1CCN(c2ccc([N+](=O)[O-])c3cccnc23)CC1 | inactive | – |
| O=[N+]([O-])c1ccc(N2CCN(c3ccc(F)cc3F)CC2)c2ncccc12 | inactive | – |
| N#Cc1ccccc1N1CCN(c2ccc([N+](=O)[O-])c3cccnc23)CC1 | inactive | – |
| O=C1NCCC1Nc1ccc([N+](=O)[O-])c2cccnc12 (stereo not drawn) | inactive | – |
| O=[N+]([O-])c1ccc(N2CCOCC2)c2ncccc12 | inactive | – |
| COC(=O)C1CCCN(c2ccc([N+](=O)[O-])c3cccnc23)C1 (stereo not drawn) | inactive | – |
